According to publication PMC10254030, “Photoactivatable Heptamethine-Based Carbonic Anhydrase Inhibitors Leading to New Anti-Antibacterial Agents” (International Journal of Molecular Sciences, 2023):
Where two headings read alike, the source gives them in different places.

Legend:
hCA I = molecular target: T1, hCA I (Homo sapiens, UniProt P00915); experiment: stopped-flow CO2 hydrase assay, hCA I; assay type: biochemical; conditions: for Ki: stopped-flow CO2 hydrase assay, pH 7.4, mean from 3 assays; for selectivity for all assayed bacterial isoforms: bacterial CA isoforms versus the human off-target hCA I and II
T1 construct: made in house
T1 sequence (P00915 whole entry, canonical isoform): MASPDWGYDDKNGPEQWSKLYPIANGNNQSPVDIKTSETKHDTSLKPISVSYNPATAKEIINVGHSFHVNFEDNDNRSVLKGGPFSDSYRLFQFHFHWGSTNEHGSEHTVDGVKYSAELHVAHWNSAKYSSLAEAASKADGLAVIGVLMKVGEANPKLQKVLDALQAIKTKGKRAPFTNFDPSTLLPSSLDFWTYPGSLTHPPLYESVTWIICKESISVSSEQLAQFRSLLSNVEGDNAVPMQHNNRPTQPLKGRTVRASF
Procedure: (§1) The CA isoforms belong to different classes of CA enzymes characterized by different kinetic and structural features to assess isoform selectivity.
(§2) An Applied Photophysics stopped-flow instrument was used to assay CA-catalyzed CO2 hydration activity. […] The uncatalyzed rates were determined in the same manner and subtracted from the total observed rates. Stock solutions of the inhibitor (0.1 mM) were prepared in distilled–deionized water, and dilutions up to 0.01 nM were done thereafter with the assay buffer. Inhibitor and enzyme solutions were preincubated together for 15 min at room temperature prior to the assay to allow for the formation of the E–I complex. The inhibition constants were obtained by non-linear least-squares methods using PRISM 3 and the Cheng–Prusoff equation as reported earlier and represent the mean from at least three different determinations. All CA isoforms were recombinant proteins obtained in house, as reported earlier.

hCA II = molecular target: T2, hCA II (Homo sapiens, UniProt P00918); experiment: stopped-flow CO2 hydrase assay, hCA II; assay type: biochemical; conditions: pH 7.4, mean from 3 assays
T2 construct: made in house
Procedure: as §1, §2

E. coli β = molecular target: T3, E. coli β (Escherichia coli, UniProt P61517); experiment: stopped-flow CO2 hydrase assay, E. coli β; assay type: biochemical; conditions: pH 8.4, mean from 3 assays
T3 construct: made in house
T3 sequence (P61517 whole entry): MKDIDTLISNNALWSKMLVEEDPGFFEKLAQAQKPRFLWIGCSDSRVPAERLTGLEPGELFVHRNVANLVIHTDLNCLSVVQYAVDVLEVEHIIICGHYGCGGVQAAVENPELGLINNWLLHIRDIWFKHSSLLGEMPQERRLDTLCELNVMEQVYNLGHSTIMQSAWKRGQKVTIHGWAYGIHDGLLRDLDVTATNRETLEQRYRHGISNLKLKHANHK
Procedure: as §1
An Applied Photophysics stopped-flow instrument was used to assay CA-catalyzed CO2 hydration activity. Phenol red (at a concentration of 0.2 mM) was used as an indicator, working at the absorbance maximum of 557 nm, with 20 mM Hepes (pH 7.4 for α-class and pH 8.4 for β- and γ-classes) as a buffer and 20 mM Na2SO4 (to maintain constant the ionic strength), following the initial rates of the CA-catalyzed CO2 hydration reaction for a period of 10–100 s. The CO2 concentrations ranged from 1.7 to 17 mM for the determination of the kinetic parameters and inhibition constants. Enzyme concentrations ranged between 5 and 12 nM. For each inhibitor, at least six traces of the initial 5–10% of the reaction were used to determine the initial velocity. The uncatalyzed rates were determined in the same manner and subtracted from the total observed rates. Stock solutions of the inhibitor (0.1 mM) were prepared in distilled–deionized water, and dilutions up to 0.01 nM were done thereafter with the assay buffer. Inhibitor and enzyme solutions were preincubated together for 15 min at room temperature prior to the assay to allow for the formation of the E–I complex. The inhibition constants were obtained by non-linear least-squares methods using PRISM 3 and the Cheng–Prusoff equation as reported earlier and represent the mean from at least three different determinations. All CA isoforms were recombinant proteins obtained in house, as reported earlier.

E. coli γ = E. coli γ (Escherichia coli, UniProt P0A9W9); assay type: biochemical; conditions: stopped-flow CO2 hydrase assay, pH 8.4, mean from 3 assays
Chain of E. coli γ (P0A9W9 whole entry): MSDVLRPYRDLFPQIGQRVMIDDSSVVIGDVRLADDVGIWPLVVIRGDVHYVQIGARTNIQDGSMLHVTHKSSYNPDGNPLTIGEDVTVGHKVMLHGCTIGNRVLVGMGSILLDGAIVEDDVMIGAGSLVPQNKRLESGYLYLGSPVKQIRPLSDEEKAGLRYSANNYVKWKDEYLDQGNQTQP
Procedure: as §1, §2

PsCA1 = PsCA1 (Pseudomonas aeruginosa, UniProt Q9I730); experiment: biochemical; conditions: stopped-flow CO2 hydrase assay, mean from 3 assays
Chain of PsCA1 (Q9I730 entry or part of it): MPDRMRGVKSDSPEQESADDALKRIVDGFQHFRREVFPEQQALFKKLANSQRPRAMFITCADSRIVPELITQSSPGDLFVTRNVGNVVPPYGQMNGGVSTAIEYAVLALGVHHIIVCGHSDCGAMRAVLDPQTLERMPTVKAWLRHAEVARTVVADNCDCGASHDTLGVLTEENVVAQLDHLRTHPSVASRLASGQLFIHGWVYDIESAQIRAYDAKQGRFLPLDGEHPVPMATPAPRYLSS
Procedure: as §1, §2

PsCA3 = molecular target: T4, PsCA3 (Pseudomonas aeruginosa, UniProt Q9HVB9); experiment: biochemical; conditions: stopped-flow CO2 hydrase assay, mean from 3 assays
T4 construct: made in house
T4 sequence (Q9HVB9 1-215): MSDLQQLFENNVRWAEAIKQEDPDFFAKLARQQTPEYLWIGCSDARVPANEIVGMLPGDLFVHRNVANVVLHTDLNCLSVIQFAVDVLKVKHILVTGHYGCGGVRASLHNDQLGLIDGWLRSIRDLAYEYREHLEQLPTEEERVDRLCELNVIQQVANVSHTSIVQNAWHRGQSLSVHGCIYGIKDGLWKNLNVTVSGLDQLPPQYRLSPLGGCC
Procedure: as §1, §2

E. faecalis = experiment: MIC and MBC test (NF EN ISO 20776-1), E. faecalis; assay type: cell-based, Enterococcus faecalis; conditions: for MIC: Enterococcus faecalis; for MBC E. faecalis: bacteriostatic or bactericidal effect, tested up to 8 × MIC
Procedure: (§3) Derivatives 2a–f were dissolved in DMSO and further diluted with distilled water to the required final concentration. The microorganisms (E. faecalis, S. aureus, and S. epidermidis reported in Table 4) were cultured overnight at 35 °C in Mueller Hinton Broth 2, Cation-Adjusted (BD, BD 212322, New York, NY, USA) and adjusted to 0.5 McFarland, according to standardized guidelines NF EN ISO 20776-1 [23]. The minimal inhibitory concentration (MIC) test was performed according to the standardized guidelines NF EN ISO 20776-1 [23]. Once the MIC was obtained, the minimal bactericidal concentration (MBC) test was performed.

S. aureus = experiment: MIC and MBC test (NF EN ISO 20776-1), S. aureus; assay type: cell-based, Staphylococcus aureus; conditions: for MIC: Staphylococcus aureus, ATCC29213, light or radiation study; for MIC / MIC S. aureus: ATCC 29213, without irradiation; for MBC S. aureus: bacteriostatic or bactericidal effect, tested up to 8 × MIC
Procedure: as §3

S. epidermidis [1] = experiment: MIC and MBC test (NF EN ISO 20776-1), S. epidermidis; assay type: cell-based, Staphylococcus epidermidis; conditions: for MIC: Staphylococcus epidermidis, ATCC14990, light or radiation study; for MIC / MIC S. epidermidis: ATCC 14990, without irradiation
Procedure: as §3

MRC-5 cells = experiment: cytotoxicity, MTT assay; assay type: cell-based, human; conditions: for IC50: MRC5, cytotoxicity, human lung fibroblasts, 24 h, MTT
Procedure: The cytotoxicity of the products was tested on MRC-5 cells (lung fibroblasts, ATCC CCL-171) with a seeding concentration of 10,000 cells/well. The products were diluted with a 2% FSC MEM medium (Sigma, M4655, Missouri, MO, USA) to concentrations ranging from 1 to 256 μg/mL and incubated with 80% confluent cells for 24 h. The following day, a 3-[4,5-dimethylthiazol-2-yl]-2,5-diphenyl tetrazolium bromide (MTT) assay was performed, and the optical density of the samples was measured at 540 nm.

human red blood cells = experiment: hemolysis assay; assay type: cell-based; conditions: 30 min 37 °C; for hemolysis activity, cytotoxicity to human red blood cells: 0.5–150 µg/mL, compared with 0.01% Tween 20
Procedure: Blood collected at CHU Nancy was washed three times with PBS, and 10^7 cells/mL were incubated for 30 min at 37 °C with the newly synthesized compounds. The derivatives were previously diluted to the range from 0.5 to 75/150 μg/mL with PBS. As a positive control, cells were resuspended with 0.01% polysorbate 20 (Tween 20). Tween 20 has often been used as a reference compound for cell lysis. Upon incubation, the samples were centrifuged for 5 min at 800× g, and the supernatant was collected for optical density reading at 540 nm.

S. epidermidis [2] = experiment: photoactivity assay, irradiation with 652 nm laser; assay type: cell-based, Staphylococcus epidermidis; conditions: 652 nm laser 47 min, 30 J/cm2, 2c and 2d at 64 μg/mL, others at MIC
Procedure: Upon incubation of 1.5–2 h with the products, the samples were irradiated for 47 min with a 652 nm laser (to obtain 1.70 W, 30 J/cm^2). Upon irradiation, the cells were plated and incubated overnight at 35 °C on Mueller Hinton Agar (BD, 225250, New York, NY, USA).

[3] = light or radiation study, clinical isolate, without irradiation, read-out: MIC E. faecalis
[4] = span over the four compounds and both strains, read-out: MIC against the E. faecalis and S. aureus strains
[5] = bacteriostatic or bactericidal effect, tested up to 8 × MIC
[6] = clinical isolate, without irradiation

| SMILES | Ki (hCA I) [nM] | Ki (hCA II) [nM] | Ki (E. coli β) [nM] | Ki (E. coli γ) [nM] | Ki (PsCA1) [nM] | Ki (PsCA3) [nM] | MIC (E. faecalis; [3]) [µg/mL] | MIC (E. faecalis; [4]) [µg/mL] | MBC E. faecalis (E. faecalis) | MIC (S. aureus) [µg/mL] | MBC S. aureus (S. aureus) | MIC (S. epidermidis [1]) [µg/mL] | MBC S. epidermidis (S. epidermidis [1]; Table 3) | MBC S. epidermidis (S. epidermidis [1]; [5]) | IC50 (MRC-5 cells) [µg/mL] | hemolysis activity, cytotoxicity to human red blood cells (human red blood cells) | MIC E. faecalis (E. faecalis; [6]) | MIC S. aureus (S. aureus) | MIC S. epidermidis (S. epidermidis [1]) | Growth Reduction (S. epidermidis [2]) [log reduction] | other results |
| --- | --- | --- | --- | --- | --- | --- | --- | --- | --- | --- | --- | --- | --- | --- | --- | --- | --- | --- | --- | --- | --- |
| CN1C(=CC=C2CCCC(C=CC3=[N+](C)c4ccc5ccccc5c4C3(C)C)=C2NCCc2ccc(S(N)(=O)=O)cc2)C(C)(C)c2c1ccc1ccccc21 [Compound 2e] | 861 | 160 | 74.1 | 110 | 71.1 | 77.7 | 16 to 64 | 8 to 128 | bactericidal | 8 to 32 | bactericidal | 1 to 4 | bactericidal | bactericidal | 2 | not cytotoxic | – | – | – | – | – |
| CC1(C)C(/C=C/C2=C(NCCNC(=O)Nc3ccc(S(N)(=O)=O)cc3)C(=C/C=C3\N(CCCCS(=O)(=O)O)c4ccc5ccccc5c4C3(C)C)/CCC2)=[N+](CCCCS(=O)(=O)[O-])c2ccc3ccccc3c21 [Compound 2d] | 923 | 183 | 69.8 | 111 | 88.7 | 81 | > 256 | – | > 256 µg/mL | > 256 | > 256 µg/mL | > 256 | > 256 µg/mL | > 256 µg/mL | > 256 | significant cytotoxicity | over 256 µg/mL | over 256 µg/mL | over 256 µg/mL | 1 | – |
| CN1C(=CC=C2CCCC(C=CC3=[N+](C)c4ccc5ccccc5c4C3(C)C)=C2NCCNC(=O)Nc2ccc(S(N)(=O)=O)cc2)C(C)(C)c2c1ccc1ccccc21 [Compound 2f] | 3900 | 625 | 64.9 | 124 | 58.3 | 94.5 | 32 to 128 | 8 to 128 | bactericidal | 16 to 64 | bacteriostatic | 2 to 8 | bacteriostatic | bacteriostatic | 78.8 | not cytotoxic | – | – | – | 1 | selectivity for all assayed bacterial isoforms (hCA I): ~10 fold; selectivity index (SI) against S. epidermidis (S. epidermidis [1]; ratio between cytotoxicity in μg/mL and the MIC value in μg/mL): highest SI |
| CCCN1C(=CC=C2CCCC(C=CC3=[N+](CCC)c4ccccc4C3(C)C)=C2NCCc2ccc(S(N)(=O)=O)cc2)C(C)(C)c2ccccc21 [Compound 2a] | 410 | 163 | 54.8 | 120 | 60.4 | 89.4 | 16 to 64 | 8 to 128 | bactericidal | 8 to 32 | bacteriostatic | 4 to 16 | bactericidal | bactericidal | 38.5 | not cytotoxic | – | – | – | 1 | fold less toxic than 2e (MRC-5 cells; MRC-5 IC50 compared with 2e): 19 fold |
| CC1(C)C(/C=C/C2=C(NCCc3ccc(S(N)(=O)=O)cc3)C(=C/C=C3\N(CCCCS(=O)(=O)O)c4ccc5ccccc5c4C3(C)C)/CCC2)=[N+](CCCCS(=O)(=O)[O-])c2ccc3ccccc3c21 [Compound 2c] | 529 | 91 | 60.2 | 117 | 64.8 | 76.8 | > 256 | – | > 256 µg/mL | > 256 | > 256 µg/mL | > 256 | > 256 µg/mL | > 256 µg/mL | > 256 | significant cytotoxicity | over 256 µg/mL | over 256 µg/mL | over 256 µg/mL | 1 | – |
| CCCN1C(=CC=C2CCCC(C=CC3=[N+](CCC)c4ccccc4C3(C)C)=C2NCCNC(=O)Nc2ccc(S(N)(=O)=O)cc2)C(C)(C)c2ccccc21 [Compound 2b] | 957 | 588 | 69.4 | 93.5 | 46.9 | 48.1 | 16 to 64 | 8 to 128 | bacteriostatic | 8 to 32 | bacteriostatic | 4 to 16 | bacteriostatic | bacteriostatic | 82.2 | significant cytotoxicity | – | – | – | 2 | selectivity for all assayed bacterial isoforms (hCA I): ~10 fold; concentration above which cytotoxic to human red blood cells (human red blood cells; hemolysis assay): > 75 µg/mL |
